{"source": "patent US20260271978A1", "about": "“USE OF FATTY ACIDS TO MODIFY FLAVOR” (Firmenich Incorporated, priority 2023, published 2026)", "key": {"[1]": {"assay": "Sensory panel rating of oat/pea protein blend solution at 3% with fatty acid at 400 ppm", "details": "400 ppm in oat/pea protein blend (1:14 w/w), about 3 wt% in water, no sugar; mean of eight panelists, scale 0 to 5", "procedure": "Liquid solutions of a blend of oat and pea protein (1:14 w/w) were prepared (about 3 percent by weight in water) without sugar added. Control and test samples were prepared. To the test sample 10-undecenoic acid was added at a concentration of 400 ppm. The control and test samples were evaluated by eight sensory panelists to rate various characteristics of the control sample and the test sample on a scale from 0 to 5."}, "[2]": {"assay": "Sensory panel rating of oat/pea protein blend solution at 6% with fatty acid at 400 ppm", "details": "400 ppm in oat/pea protein blend (1:28 w/w), about 6 wt% in water, no sugar; mean of eight panelists, scale 0 to 5", "procedure": "Liquid solutions of a blend of oat and pea protein (1:28 w/w) were prepared (about 6 percent by weight in water) without sugar added. Control and test samples were prepared. To the test sample 10-undecenoic acid was added at a concentration of 400 ppm. The control and test samples were evaluated by eight sensory panelists to rate various characteristics of the control sample and the test sample on a scale from 0 to 5."}, "[3]": {"assay": "Sensory panel rating of fava bean protein solution at 6% with fatty acid at 400 ppm", "details": "400 ppm in fava bean protein, 6 wt% in water, no sugar; mean of 18 panelists, scale 0 to 5", "procedure": "Liquid solutions of fava bean protein were prepared (6 percent by weight in water) without sugar added. Control and test samples were prepared. To the test sample 10-undecenoic acid was added at a concentration of 400 ppm. The control and test samples were evaluated by 18 sensory panelists to rate various characteristics of the control sample and the test sample on a scale from 0 to 5."}, "[4]": {"assay": "Sensory panel rating of pea protein solution at 3% with fatty acid at 1000 ppm", "details": "1000 ppm in pea protein, 3 wt% in water, no sugar; mean of eight panelists, scale 0 to 5", "procedure": "Liquid solutions of pea protein were prepared (3 percent by weight in water) without sugar added. Control and test samples were prepared. To the test sample 10-undecenoic acid was added at a concentration of 1000 ppm. The control and test samples were evaluated by eight sensory panelists to rate various characteristics of the control sample and the test sample on a scale from 0 to 5."}, "[5]": {"assay": "Sensory panel rating of pea protein solution at 3% with fatty acid at 700 ppm", "details": "700 ppm in pea protein, 3 wt% in water, no sugar; mean of eight panelists, scale 0 to 5", "procedure": "Liquid solutions of pea protein were prepared (3 percent by weight in water) without sugar added. Control and test samples were prepared. To the test sample 10-undecenoic acid was added at a concentration of 700 ppm. The control and test samples were evaluated by eight sensory panelists to rate various characteristics of the control sample and the test sample on a scale from 0 to 5."}, "[6]": {"assay": "Sensory panel rating of chickpea protein solution at 6% with fatty acid at 700 ppm", "details": "700 ppm in chickpea protein, 6 wt% in water, no sugar; mean of 18 panelists, scale 0 to 5", "procedure": "Liquid solutions of xchickpea protein were prepared (6 percent by weight in water) without sugar added. Control and test samples were prepared. To the test sample 10-undecenoic acid was added at a concentration of 700 ppm. The control and test samples were evaluated by 18 sensory panelists to rate various characteristics of the control sample and the test sample on a scale from 0 to 5."}}}
{"smiles": "C=CCCCCCCCCC(=O)O", "note": "[10-undecenoic acid, Undec-10-enoic acid]", "values": [{"measurement": "Astringent", "setting": "[1]", "result": 1.8}, {"measurement": "Bitter", "setting": "[1]", "result": 1.7}, {"measurement": "Cereal Note", "setting": "[1]", "result": 2.5}, {"measurement": "Creaminess", "setting": "[1]", "result": 1.6}, {"measurement": "Fattiness", "setting": "[1]", "result": 1.4}, {"measurement": "Green/Vegetal Note", "setting": "[1]", "result": 2.1}, {"measurement": "Mouthcoating", "setting": "[1]", "result": 2.0}, {"measurement": "Sweet", "setting": "[1]", "result": 3.6}, {"measurement": "Thickness", "setting": "[1]", "result": 1.9}, {"measurement": "Astringent", "setting": "[2]", "result": 1.8}, {"measurement": "Bitter", "setting": "[2]", "result": 1.8}, {"measurement": "Cereal Note", "setting": "[2]", "result": 2.8}, {"measurement": "Creaminess", "setting": "[2]", "result": 2.4}, {"measurement": "Fattiness", "setting": "[2]", "result": 2.3}, {"measurement": "Green/Vegetal Note", "setting": "[2]", "result": 2.3}, {"measurement": "Mouthcoating", "setting": "[2]", "result": 3.3}, {"measurement": "Sweet", "setting": "[2]", "result": 3.1}, {"measurement": "Thickness", "setting": "[2]", "result": 2.9}, {"measurement": "Astringent", "setting": "[3]", "result": 3.2}, {"measurement": "Bitter", "setting": "[3]", "result": 2.4}, {"measurement": "Cereal Note", "setting": "[3]", "result": 2.3}, {"measurement": "Creaminess", "setting": "[3]", "result": 1.2}, {"measurement": "Fattiness", "setting": "[3]", "result": 1.3}, {"measurement": "Green/Vegetal Note", "setting": "[3]", "result": 2.7}, {"measurement": "Mouthcoating", "setting": "[3]", "result": 1.8}, {"measurement": "Sweet", "setting": "[3]", "result": 2.3}, {"measurement": "Thickness", "setting": "[3]", "result": 1.2}, {"measurement": "Astringent", "setting": "[4]", "result": 2.1}, {"measurement": "Bitter", "setting": "[4]", "result": 1.7}, {"measurement": "Cereal Note", "setting": "[4]", "result": 2.7}, {"measurement": "Creaminess", "setting": "[4]", "result": 2.1}, {"measurement": "Fattiness", "setting": "[4]", "result": 2.0}, {"measurement": "Green/Vegetal Note", "setting": "[4]", "result": 2.0}, {"measurement": "Mouthcoating", "setting": "[4]", "result": 2.9}, {"measurement": "Sweet", "setting": "[4]", "result": 3.4}, {"measurement": "Thickness", "setting": "[4]", "result": 2.1}, {"measurement": "Astringent", "setting": "[5]", "result": 2.6}, {"measurement": "Bitter", "setting": "[5]", "result": 2.1}, {"measurement": "Cereal Note", "setting": "[5]", "result": 2.4}, {"measurement": "Creaminess", "setting": "[5]", "result": 1.8}, {"measurement": "Fattiness", "setting": "[5]", "result": 1.9}, {"measurement": "Green/Vegetal Note", "setting": "[5]", "result": 2.4}, {"measurement": "Mouthcoating", "setting": "[5]", "result": 2.3}, {"measurement": "Sweet", "setting": "[5]", "result": 3.1}, {"measurement": "Thickness", "setting": "[5]", "result": 2.0}, {"measurement": "Astringent", "setting": "[6]", "result": 2.4}, {"measurement": "Bitter", "setting": "[6]", "result": 2.1}, {"measurement": "Cereal Note", "setting": "[6]", "result": 2.7}, {"measurement": "Creaminess", "setting": "[6]", "result": 2.3}, {"measurement": "Fattiness", "setting": "[6]", "result": 1.9}, {"measurement": "Green/Vegetal Note", "setting": "[6]", "result": 2.8}, {"measurement": "Mouthcoating", "setting": "[6]", "result": 2.4}, {"measurement": "Sweet", "setting": "[6]", "result": 2.8}, {"measurement": "Thickness", "setting": "[6]", "result": 1.6}]}
